These results are taken from article PMC10156683, “Male-selective effects of oxytocin agonism on alcohol intake: behavioral assessment in socially housed prairie voles and involvement of RAGE” (Neuropsychopharmacology, 2022).

Counter-ions that a name gives are not always drawn.

In data set [1] the test system is RAGE. Put plainly: Involvement of RAGE in brain penetration of d5 OXT: pre-treatment with RAGE antagonist FPS ZM1. Type of data set: in vivo, prairie vole (Microtus ochrogaster). The source says:
Following confirmation of the presence of RAGE mRNA and protein in prairie vole brain using RT-PCR and immunohistochemistry as described in the Supplementary Material, we tested whether IN or IP administered OXT penetrates into the brain and whether the RAGE protein is involved in this transport. Adult female and male prairie voles were assigned to control or treatment groups. Animals in the treatment group received the high affinity, BBB-permeant RAGE antagonist FPS ZM1 and control animals received saline 30 min prior to administration of oxytocin-(leucine-5,5,5-d3, glycine-2,2-d2) trifluoroacetate salt (d5 OXT) in saline to all animals. […]
(§1) Alcohol and water intake were calculated for each animal as liquid consumed in grams (adjusted per density of 5% (v/v) ethanol and water) over body weight in kilograms. Alcohol and water drink size were determined by the volume of liquid consumed (ml) per consumption event. Consumptive visits were defined as channel entries during which a consumption event was recorded. […] Cumulative measures were analyzed at hourly intervals for 24 h post-treatment. […]
In 5 (1 control female, 2 control males, 1 pre-treated female and 1 pre-treated male) out of 57 cases levels were above or below 2 standard deviations from the mean and thus removed from analysis. In cases when no d5 OXT was detected, the concentration was entered as zero (17 total). […]

For data set [2], the system named is AVPR1a. The conditions noted are these: cited from earlier work. The source says:
Determining the behavioral and molecular effects of OXT on alcohol consumption is important for translational application and optimization of treatment efficacy. […] Given OXT’s low brain-penetrance and potentially non-specific effects on the related vasopressin receptor AVPR1a, development of an OXTR receptor agonist with a more desirable pharmacokinetic profile could increase the tran ...

Data set [3] can be described thus: in vivo. Also noted: species or system prairie vole (Microtus ochrogaster). The conditions noted are these: for tissue level at time at 10 min: female.
Text: Following confirmation of the presence of RAGE mRNA and protein in prairie vole brain using RT-PCR and immunohistochemistry as described in the Supplementary Material, we tested whether IN or IP administered OXT penetrates into the brain and whether the RAGE protein is involved in this transport. Adult female and male prairie voles were assigned to control or treatment groups. Animals in the treatment group received the high affinity, BBB-permeant RAGE antagonist FPS ZM1 and control animals received saline 30 min prior to administration of oxytocin-(leucine-5,5,5-d3, glycine-2,2-d2) trifluoroacetate salt (d5 OXT) in saline to all animals. After 10 min, animals were deeply anaesthetized under 4% isoflurane and perfused with heparinized saline. […] Brains were extracted and snap-frozen in isopentane, then stored at −80 °C until prepared for analysis via LC-MS/MS (Supplementary Fig. S2).
OXT acetate salt (Bachem, Torrence, CA, USA) was dissolved in normal saline to doses of 5.0 mg/kg and 10.0 mg/kg (25 µl, IN). LIT-001 was synthesized in the laboratory of Dr. Marcel Hibert. […]
as §1
Adult female and male prairie voles (75- 207d) were assigned to control (n =28; females = 14) or treatment (n = 29; females = 15) groups pseudo-randomly to ensure genetic diversity across groups. Whole brain tissue samples (~650 mg) were homogenized, subjected to protein precipitation and solid-phase extraction, and analyzed for concentrations (pg/mg) of exogenous oxytocin-(leucine-5,5,5-d3, glycine-2,2-d2) trifluoroacetate salt (d5 OXT) using a Shimadzu Nexera-LCMS-8060 (Shimadzu, Kyoto, Japan) liquid chromatograph-triple quadrupole mass spectrometer. […]

Data set [4] has as its system prairie voles. As to the kind of experiment: Continuous-access two-bottle choice (CA-2BC) alcohol drinking in socially housed prairie voles, HM2 cages, mixed-cage design. The format is in vivo, prairie vole (Microtus ochrogaster). On the procedure: For experiments examining the effects of pharmacologically targeting the OXT system on alcohol (and water) consumption, adult female and male prairie voles were given ad libitum access to alcohol in a CA-2BC design for 6 days. […] Fluid consumption was measured before and after treatment (IN OXT or IP LIT-001, or vehicle) using the Herdsman-2 (HM2; MBrose Faaborg, Denmark) cage system. The HM2 system is designed to allow socially housed animals unrestrained access to and interaction with other animals in the cage, while accounting for precise, individualized measures of fluid intake through the combined use of balances and radiofrequency identification (RFID) implants. This cage system has been previously utilized to assess potential pharmacotherapies for AUD in rodents. Further details are provided in the Supplementary Material (Supplementary Fig. S1). Consistent with previous studies, a mixed-cage design (treated and control animals in the same cage) was used.
OXT acetate salt (Bachem, Torrence, CA, USA) was dissolved in normal saline to doses of 5.0 mg/kg and 10.0 mg/kg (25 µl, IN). LIT-001 was synthesized in the laboratory of Dr. Marcel Hibert. It was dissolved in 5% dimethyl sulfoxide in saline and administered at a dose of 10 mg/kg (IP). FPS ZM1 (1 mg/kg, IP; Tocris, Minneapolis, MN, USA) and d5 OXT (3 µg/25 µl, IN or 12 µg/0.1 ml, IP; Sigma-Aldrich, St. Louis, MO, USA) were dissolved in saline. The d5 OXT dose was based on previous assessments of OXT penetrance.
Alcohol and water intake were calculated for each animal as liquid consumed in grams (adjusted per density of 5% (v/v) ethanol and water) over body weight in kilograms. Alcohol and water drink size were determined by the volume of liquid consumed (ml) per consumption event. Consumptive visits were defined as channel entries during which a consumption event was recorded. […] Cumulative measures were analyzed at hourly intervals for 24 h post-treatment. Concentrations of d5 OXT (pg/mg of tissue) were obtained through LC-MS/MS analysis on a Shimadzu Nexera-LCMS-8060 instrument using a previously established method. Data analysis was performed in IBM SPSS Statistics 27 and visualization was performed in Prism 9.3.1. The distribution of many of these measures was not normal. Therefore, non-parametric statistics were applied, including Kruskal–Wallis test and post hoc analyses with Mann–Whitney U-test. While Results below only include p values, detailed statistical analyses are presented in Supplementary Material Table S1.
The Herdsman-2 (HM2) system was used in the experiments measuring alcohol consumption. The HM2 cage system consists of Techniplast 1500U Eurostandard type IV S (48 x 37.5 x 21cm) rodent housing cages equipped with two (11cm) channels (front and back) on one side and stairs specially designed to accommodate prairie voles. Each channel leads to a bottle (one water, one 5% ethanol in water, v/v) below which is a precision balance with a catch tray for spillage- which is automatically deducted from consumption calculations. Breakage of the photobeam at the entrance of the channel triggers the RFID reader to register the animal. A consumption event is initiated when the animal touches the drinking spout and a change of weight of at least 0.02 g is detected; the starting weight is saved and ending weight is registered only after the system receives a stable reading for 5 s. A consumption event is ended 30s after the last touch of the drinking spout, regardless of whether the animal remains in the channel. The system collects a number of measures, including: weight of liquid consumed, number of channel entries and consumptive vs. non-nutritive visits (whether liquid is consumed or not). […]

For data set [5], the system named is prairie voles. The conditions noted are these: both sexes, previous prairie vole study; cited from earlier work. The source says: Importantly, RAGE immunoreactivity was detected in the choroid plexus, hypothalamus and hippocampus, confirming expression in possible locations of central penetration. […] Studies in mice noted that the IN route of administration can result in hi ...

For data set [6] the following is noted: cited from earlier work. The source says: Determining the behavioral and molecular effects of OXT on alcohol consumption is important for translational application and optimization of treatment efficacy. […] While a statisti ...

As for `O=C(c1ccc(Cl)cc1)N(Cc1ccccc1)C1CCCCC1` [FPS ZM1], the “Effect of antagonist pre-treatment on brain d5 OXT levels after IP d5 OXT (in words)” value in data set [1] (female or male prairie voles, FPS ZM1 1 mg/kg IP 30 min before IP d5 OXT, control vs antagonist pre-treated, ps > 0.21) is given as “No significant differences”. The “Effect of antagonist pre-treatment on brain d5 OXT levels after IN d5 OXT (in words)” value in data set [1] (male prairie voles, FPS ZM1 1 mg/kg IP 30 min before IN d5 OXT, vs vehicle pre-treated controls, p = 0.02) is listed as “significantly decreased”.

Turning to `Cc1cc(C(=O)N2Cc3cnn(C)c3Nc3ccccc32)ccc1CNC(=O)N1CCN(Cc2cc(O)cc(O)c2)CC1` [WAY-267646], the “Affinity for the AVPR1a (in words)” value in data set [2] is on record as “moderate affinity”.

Regarding `CC[C@H](C)[C@@H]1NC(=O)[C@H](Cc2ccc(O)cc2)NC(=O)[C@@H](N)CSSC[C@@H](C(=O)N2CCC[C@H]2C(=O)N[C@@H](CC(C)C)C(=O)NCC(N)=O)NC(=O)[C@H](CC(N)=O)NC(=O)[C@H](CCC(N)=O)NC1=O` [d5 OXT, oxytocin-(leucine-5,5,5-d3, glycine-2,2-d2) trifluoroacetate salt], the tissue level at time at 10 min in data set [3] (3 ug) stood at 0.006 ng/g; in data set [3] (ip, 12 ug), 0.05 ng/g. In data set [3] (ip), the “Presence of d5 OXT in brain (in words)” value is given as “detected”.

As for Oxytocin [OXT], the “Water intake or drink size 3 h post-treatment (in words)” value in data set [4] (IN OXT 5 and 10 mg/kg, 3 h post-treatment) was “No effect”. In addition, the “Alcohol or water consumptive visits or non-nutritive visits (in words)” value in data set [4] (IN OXT 5 and 10 mg/kg, females and males, any time point, p > 0.94) is “No significant differences”. In data set [4] (both doses of IN OXT (5 and 10 mg/kg), 2 h post-treatment, Kruskal-Wallis p = 0.02), the “Alcohol intake at 2 h post-treatment (in words)” value is on record as “decreased alcohol intake”. The “Effect on alcohol consumption in females (in words)” value in data set [4] (female prairie voles, IN OXT 5 and 10 mg/kg) is recorded as “without affecting alcohol consumption”. Also, the “Alcohol intake vs control counterparts (in words)” value in data set [4] (male prairie voles, 5 mg/kg and 10 mg/kg IN OXT, 3 h post-treatment, Mann-Whitney p = 0.01 and p = 0.02) is “lower alcohol intake”. Also, the “Alcohol drink size vs control counterparts (in words)” value in data set [4] (male prairie voles, 5 mg/kg and 10 mg/kg IN OXT, 3 h post-treatment, p = 0.01 and p = 0.02) is reported as “smaller drink sizes”. Also, the “Water intake at 2 h post-treatment (in words)” value in data set [4] (male prairie voles, 10 mg/kg IN OXT, 2 h post-treatment, p = 0.04) was “increased water intake”. Further, the “Alcohol and water intake after IP OXT (in words)” value in data set [5] was “decreased alcohol and water intake”. In data set [6], the “Bioavailability (in words)” value is reported as “low bioavailability”, the “Metabolic stability (in words)” value is on record as “metabolically unstable” and the “Oral availability (in words)” value is “not orally available”. In addition, in data set [6] (estimated), the Half-life entry is listed as “tens of minutes”.

In the case of TC-OT-39, the “Affinity for the AVPR1a (in words)” value in data set [2] was “moderate affinity”.
